Tests used:
Type in all cases: cell-based, human
[1] = system: SkBr3 cells; assay: RT-qPCR of EMT markers; settings: MitoQ 500 nM, 48 h
Experimental: (§1) Total mRNA from MDA-MB-231, SkBr3 and MDA-MB-436 cells treated ±MitoQ for 48 h was extracted using the NucleoSpin RNA Kit (Macherey-Nagel®). Total mRNA from primary tumors was extracted with Tri reagent (Molecular Research Center®, Cat #TR118). mRNAs were quantified by the Qubit BR dsRNA assay kit (Thermo Fisher Scientific®), and mRNA integrity was evaluated on an Agilent® 2100 Bioanalyzer with the RNA 6000 nano kit (Agilent®). It was reverse transcribed in complementary DNA using the High-Capacity cDNA Reverse Transcription Kit (Applied Biosystems®, cat #4368814) according to manufacturer's protocol. Complementary DNA (500 ng) was amplified by real time quantitative PCR (RT-qPCR) using the low ROX SYBR Master Mix dTTP Blue (Eurogentec®) and primers listed in Table 5 and Table 6 on a ViiA 7 Real-Time PCR System (Thermo Fisher Scientific®). Gene expression was normalized to β-actin gene expression.

[2] = system: MDA-MB-436 cells; assay: RT-qPCR of EMT markers; settings: MitoQ 100 nM, 48 h
Experimental: as §1

[3] = system: MDA-MB-231 cells; assay: RT-qPCR of EMT markers; settings: MitoQ 500 nM, 48 h
Experimental: as §1

[4] = system: SkBr3 cancer cells; assay: Cell morphology, H&E; settings: MitoQ 100 to 500 nM, 48 h
Experimental: (§2) To visualize cell morphology, MDA-MB-231, SkBr3 and MDA-MB-436 cells were seeded in 24-well plates and treated ±MitoQ for 48 h, fixed in 100% methanol for 10 min stained with hematoxylin and eosin (H&E) for 10 min each, washed with water and dried. Pictures were acquired on an Axiovert 40 CFL microscope (Zeiss®) equipped with a MRC camera (Zeiss®).

[5] = system: MDA-MB-231 cancer cells; assay: Cell morphology, H&E; settings: MitoQ 100 to 500 nM, 48 h
Experimental: as §2

[6] = system: MCF10A normal breast epithelial cells; assay: Seahorse oximetry, oxygen consumption rates (OCRs); settings: MitoQ 100 nM, 48 h
Experimental: (§3) Oxygen consumption rates (OCRs) were determined on a Seahorse XF96 bioenergetic analyzer using the XF cell Mito stress kit (Agilent Technologies®), according to manufacturer's recommendations. Briefly, MDA-MB-231 (10^4 cells/well), SkBr3 (10^4 cells/well), MDA-MB-436 (10^4 cells/well) or MCF10A (10^5 cells/well) were plated on XF96 culture plates 16 h before experiments in DMEM containing 10% FBS, and treated ±MitoQ for 48 h. On the day of analysis, culture media were replaced by DMEM containing 10 mM glucose, 2 mM glutamine, 1.85 g/L NaCl, 3 mg/L phenol red, pH 7.4. Cells were incubated for 1 h in a CO2-free incubator before analysis. Sequentially, basal OCR was acquired without treatment; ATP-linked OCR after the addition of 1 μM of ATP synthase inhibitor oligomycin; maximal OCR after mitochondrial potential disruption using 1 μM of ionophore carbonyl cyanide-4-(trifluoromethoxy) phenylhydrazone (FCCP); and non-mitochondrial OCR after the addition of 0.5 μM of Complex I inhibitor rotenone together with 0.5 μM of Complex III inhibitor antimycin A. All data were normalized by total protein content (Bio-Rad® Protein Assay; catalogue #5000006) measured right after oximetry. Mitochondrial OCRs (mtOCRs) were calculated by subtracting non-mitochondrial OCRs to the corresponding basal, maximal and ATP-linked OCRs.

[7] = system: MDA-MB-436 breast cancer cells; assay: Seahorse oximetry, oxygen consumption rates (OCRs); settings: MitoQ 100 nM, 48 h
Experimental: as §3

[8] = system: MDA-MB-231 cells; assay: Cell cycle, flow cytometry with propidium iodide; settings: MitoQ 100 nM, 48 h
Experimental: Cells were seeded in 6-well plates at a density of 500,000 cells/well and allowed to adhere overnight. Cells were then starved in 0.1% FBS medium for 24 h and treated for 48 h±MitoQ. Afterwards, they were detached with trypsin-EDTA (0.05%) (Gibco®, cat #25300054) and centrifuged at 1,200 rpm for 5 min. Culture medium was discarded, and the pellets washed. Cells were fixed by adding 700 μL of ice-cold ethanol 100% in 300 μL of cell suspension in PBS. Cells were then washed twice with 1 mL of Tris buffer with 0.2% (v/v) Triton X-100, and finally resuspended in 300 μL of PBS with RNase (0.2 mg/mL) and propidium iodide (5 μg/mL). At least 10^4 events were acquired using a FACSCalibur™ flow cytometer (Becton Dickinson®), and the FlowJo cell cycle analysis tool was used to analyze data according to DNA content.

[9] = system: MDA-MB-231 and SkBr3 cells; assay: RNA sequencing, transcripts common to both cell lines; settings: MitoQ 500 nM, 48 h
Experimental: MDA-MB-231 and SkBr3 cancer cells were treated ±MitoQ for 48 h. Total mRNA was then extracted using the NucleoSpin RNA kit (Macherey-Nagel®), including DNAse treatment in the intermediary steps. mRNAs were quantified using the Qubit BR dsRNA assay kit (Thermo Fisher Scientific®), and mRNA integrity was evaluated on the Agilent 2100 Bioanalyzer using the RNA 6000 nano kit (Agilent®). All samples had RNA integrity number values ≥7.5. Libraries from control and treated samples were prepared starting from 150 ng of total mRNA using the KAPA RNA HyperPrep Kit with RiboErase (HMR) kit (KAPA Biosystems®) following the manufacturer's recommendations (KR1351—v1.16). Libraries were equimolarly pooled and sequenced on a single lane of an Illumina® NovaSeq 6000 platform. All libraries were sequenced at a depth of >50 million paired-end reads (2×100 bp reads) per sample. All sequencing data were analyzed using the Automated Reproducible MOdular workflow for preprocessing and differential analysis of RNAseq data (ARMOR) pipeline. In this pipeline, reads underwent a quality check using FastQC. Quantification and quality control results were summarized in a MultiQC report before being mapped using Salmon to the transcriptome index that was built using all Ensembl cDNA sequences obtained in the Homo_sapiens.GRCh38.cdna.all.fa file. Then, estimated transcript abundances from Salmon were imported into R using the tximeta package, and analyzed for differential gene expression with edgeR. To get a robust signature, only genes with |log 2 Fold Change|>1 and P<0.01 were retained.
While EMT and sternness markers are usual suspects when testing antimetastatic strategies, it was decided to go deeper in the understanding of the molecular effects of MitoQ, and performed unbiased RNA sequencing (RNAseq) using cells treated for 48 h±MitoQ (500 nM). […] On independent samples upon the same conditions (including |log 2 Fold Change|>1 and P<0.01), RT-qPCR on the two cell lines validated all genes as potential biomarkers of human breast cancer cell response to MitoQ, to the exception of EID1, PEG10, FTH1 and NUPR1 (FIG. 12A-M and Table 7).

[10] = |log 2 fold change|>1 and P<0.01

In the case of `COC1=C(OC)C(=O)C(CCCCCCCCCC[P+](c2ccccc2)(c2ccccc2)c2ccccc2)=C(C)C1=O` [MitoQ], the “mRNA expression of all analyzed EMT inducers” value [1] is reported as “repressed”, the “mRNA expression of EMT markers VIM (vimentin), SNAI1, SNAI2 and TWIST1” value [2] is reported as “downregulated” and the SLUG/SNAI2 transcription [3] is reported as “not significantly altered”. For the same compound, the “mRNA expression of EMT markers vimentin (VIM), SNAIL (SNAI1), ZEB1 and TWIST1” value [3] was “decreased”, the Morphological changes [4] was “not obvious” and the Morphological changes [5] was “not obvious”. The OCRs [6] was “reduced”, the “basal, maximal and ATP-linked OCRs” value [7] was “repressed” and the cell cycle [8] was “not altered”. For the same compound, the “EID1 and PEG10 gene transcripts” value ([9]; RNAseq, both cell lines) was “downregulated”, the “PHGDH-1, SLC7A11, SERPINE1, FTH1, TXNRD1, PSAT1, PCK2, G6PD, ASNS, SLC6A9 and NUPR1 gene transcripts” value ([9]; RNAseq, both cell lines) was “upregulated” and the “number of commonly induced transcripts” value [9, 10] was 11. The “number of commonly repressed transcripts” value [9, 10] was 2.

Source: patent US20250270648A1, “MOLECULAR SIGNATURE FOR ASSESSING THE RESPONSIVENESS OF CANCER TO MITOCHONDRIA-TARGETED ANTIOXIDANTS” (UNIVERSITÉ CATHOLIQUE DE LOUVAIN, priority 2021, published 2025)
